Data taken from patent US12043602B2, “Fendiline derivatives” (The Board of Regents of the University of Texas System, priority 2019, dated 2024).
Where two headings read alike, the source gives them in different places.

Columns and labels:
[1] = target: mGFP-K-RASG12V (Homo sapiens (Human), UniProt P01116, G12V); test: K-Ras mislocalization assay (confocal microscopy, Manders coefficient); type: cell-based; set-up: key to Emax: Manders coefficient: fraction of mCherry-CAAX co-localizing with GFP-K-Ras; conditions: for IC50 / Emax / EC50: MDCK cells; for IC50: 48 h treatment, read-out: IC50 (μM), KRASG12V mislocalization; for Emax: maximal effect, Manders coefficient; for Emax / EC50: 48 h; for EC50: batch 4 compounds, title calls it IC50, read-out: EC50
Procedure, shortened: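 MDCK cells stably co-expressing mGFP-K-RASG12V and mCherry-CAAX (endomembrane marker) treated with compound or 0.1% DMSO for 48 h, fixed in 4% paraformaldehyde, imaged by confocal microscopy. Mislocalization quantified as the fraction of mCherry-CAAX co-localizing with mGFP-K-RASG12V (Manders coefficient) after 8-bit thresholding.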

[2] = test system: MPanc96 (Mut) pancreatic tumor cells; test: CyQUANT proliferation assay; type: cell-based; set-up: key to IC50 proliferation MPanc96 (Mut): NE—Not efficacious; conditions: 72 h
Procedure: (§1) Madine Darby Canine Kidney epithelial cells (MDCK) stably co-expressing mGFP-tagged full length oncogenic mutant K-Ras (GFP—K-RASG12V) or mGFP-LactC2 (peptide probe for phosphatidylserine) and mCherry-tagged to the amino acids 179-189 of H-RasC181S, C184S (mCherry-CAAX, localizes primarily to endomembranes) were grown in DMEM-high glucose/sodium pyruvate/10% FBS. The medium was supplemented with 1× Penicillin/Streptomycin for fluorescence microscopy assays, to avoid any microbial contamination from the test compounds added. KLE and Hec50 cells were maintained in DMEM-F-12 medium supplemented with 10% FBS. Hec-1A and Hec-1B cells were grown in McCoy's 5a medium supplemented with 10% FBS. ESS-1 cells were grown in RPMI 1640 medium supplemented with 20% FBS. MPanc96 cells were grown in DMEM supplemented with 10% FBS, MiaPaCa-2 cells in DMEM supplemented with 10% FBS and 2.5% horse serum and all other cell lines were grown in RPMI 1640 supplemented with 10% FBS. All cancer cell media were supplemented with ×Penicillin/Streptomycin. All cell lines were grown at 37° C. with 5% CO2.
(§2) Cells were seeded in 96-well plates. After 24 h, fresh growth medium supplemented with 0.1% vehicle (DMSO), or various concentrations of drugs was added and cells were grown for 72 h. Cell numbers were quantified using the CyQUANT® Cell Proliferation Assay Kit (Molecular Probes, Life Technologies), according to the manufacturer's protocol. Fluorescence measurement was used as a measure of live cell number.

[3] = test system: MDCK cells co-expressing GFP-K-RASG12V and mCherry-CAAX; test: Cytotoxicity in mislocalization screen (death of all cells in well); conditions: drug caused death of all cells in well at 30 μM
[4] = test system: BxPC-3 (WT) pancreatic tumor cells; test: CyQUANT proliferation assay; type: cell-based; set-up: key to IC50 proliferation BxPC-3 (WT): NE—Not efficacious; conditions: 72 h
Procedure: as §1, §2

[5] = test system: MiaPaCa-2 (Mut) pancreatic tumor cells; test: CyQUANT proliferation assay; type: cell-based; set-up: key to IC50 proliferation MiaPaCa-2 (Mut): NE—Not efficacious; conditions: 72 h
Procedure: as §1, §2

[6] = test system: MOH (Mut) pancreatic tumor cells; test: CyQUANT proliferation assay; type: cell-based; set-up: key to IC50 proliferation MOH (Mut): NE—Not efficacious; conditions: 72 h
Procedure: as §1, §2

[7] = test system: MDCK cells co-expressing GFP-K-RASG12V and mCherry-CAAX
[8] = target: NRAS (Homo sapiens (Human), UniProt P01111); conditions: background statement; cited from earlier work
[9] = target: HRAS (Homo sapiens (Human), UniProt P01112); conditions: background statement; cited from earlier work
[10] = test system: KLE (WT) endometrial tumor cells; test: CyQUANT proliferation assay; type: cell-based; set-up: key: NE—Not efficacious; conditions: 72 h
Procedure: as §1, §2

[11] = test system: NCI H522 (WT) lung tumor cells; test: CyQUANT proliferation assay; type: cell-based; set-up: key to IC50 proliferation NCI H522 (WT): NE—Not efficacious; conditions: 72 h
Procedure: as §1, §2

[12] = test system: ESS-1 (WT) endometrial tumor cells; test: CyQUANT proliferation assay; type: cell-based; set-up: key: NE—Not efficacious; conditions: 72 h
Procedure: as §1, §2

[13] = test system: Ishikawa (WT) endometrial tumor cells; test: CyQUANT proliferation assay; type: cell-based; set-up: key to IC50 proliferation Ishikawa (WT): NE—Not efficacious; conditions: 72 h
Procedure: as §1, §2

[14] = test system: NCI H1975 (WT) lung tumor cells; test: CyQUANT proliferation assay; type: cell-based; set-up: key to IC50 proliferation NCI H1975 (WT): NE—Not efficacious; conditions: 72 h
Procedure: as §1, §2

[15] = test system: MiaPaCa-2 tumors; test: In vivo tumor growth assay (xenograft); set-up: species or system nu/nu mice; conditions: MiaPaCa2 xenografts in nude mice
Procedure: In Vivo Tumor Growth Assay. All animal studies were performed under an Institutional Animal Care and Use Committee (IACUC) approved animal protocol (AWC-15-0101), in accordance with the National Institutes of Health Guide for the Care and Use of Laboratory Animals. Early passage MiaPaCa-2 cells were harvested, and 2×10^6 cells were implanted into the right flanks of female nu/nu mice. The animals were randomized into control and treated groups (10 mice per group). Tumor volume (V) was measured with an external caliper every 3-4 days and it was calculated as V=0.52 (length×width2). Compound treatment was initiated when the tumor sizes reached 100 mm3. Compounds (12.5 mg/kg) were injected daily intraperitoneally for 5 days, with 2 days of no treatment in between. All treatments were continued until any of the subcutaneous tumors reached 1500 mm3 in volume, when all the animals were sacrificed, and the tumors removed.
Early passage BxPC-3 or MIAPaCa-2 cells were harvested, and 2-3X106 cells were implanted into the right flanks of nu/nu mice. The animals were randomized into control and treated groups (10 mice per group). Tumor volume (V) was measured with an external caliper every 3-4 days and it was calculated as V=0.52 (length×width2). Drug treatment was initiated 4 days after tumor implantation. Drugs were injected daily intraperitoneally (at doses indicated) for 5 days, with 2 days of no treatment in between. All treatments were continued until any of the subcutaneous tumors reached 1500 mm3 in volume or for 6 weeks (whichever was first), when all the animals were sacrificed and the tumors removed.
Next the effect of the selected PMLIs on the growth of oncogenic KRAS expressing MiaPaCa-2 cells implanted subcutaneously into the flanks of nu/nu immunosuppressed mice was determined. […] The animals were randomized into control and PMLI-treated groups (10 mice per group). Treatment was initiated when the tumors reached a mean volume of 100 mm^3. PMLIs were tested at 12.5, 7.5, 5, 2.5 and 1 mg/kg doses, administered once daily intraperitoneally for 5 days, with 2 days of no treatment in between for the duration of the experiment. […] There was no observed toxicity detected in any of the compound-treated groups during the experiment and, accordingly, there was no significant difference in the body weight of the animals in the different groups.

SMILES | IC50 [1] [µM] | Emax [1] | Cytotoxic at 30 μM [3] | also measured
C(CNC1(c2ccccc2)CC1)=C(c1ccccc1)c1ccccc1 [NY040402, N-(3,3-diphenylallyl)-1-phenylcyclopropanamine] | 0.2 | 0.835 | No | IC50 proliferation MPanc96 (Mut) [2]: NE; IC50 proliferation BxPC-3 (WT) [4]: NE; IC50 proliferation MiaPaCa-2 (Mut) [5]: NE; IC50 proliferation MOH (Mut) [6]: NE
C[C@@H](NCCC(c1ccccc1)c1ccccc1)c1ccccc1 [AVA08, R-Fendiline, reference compound] | 5.59 | 0.811 | – | Cytotoxic at 30 μM [7]: Yes; effect on the PM localization of NRAS [8]: no effect; effect on the PM localization of HRAS [9]: no effect
C[C@H](c1ccccc1)N(CC=C(c1ccccc1)c1ccccc1)CCN1CCN(C)CC1 [NY0513, (R)-N-(2-(4-methylpiperazin-1-yl)ethyl)-3,3-diphenyl-N-(1-phenylethyl)prop-2-en-1-amine] | 0.6 | 0.786 | Yes | EC50 [1]: 639 nM; Emax ([1]; listed as 15d): 0.79 ± 0.01; IC50 proliferation KLE (WT) [10]: NE
COc1ccc([C@@H](C)N(CC=C(c2ccccc2)c2ccccc2)C(=O)NC(C)(C)C)cc1 [NY0428, (R)-3-tert-butyl-1-(3,3-diphenylallyl)-1-(1-(4-methoxyphenyl)ethyl)urea] | 0.29 | 0.891 | No | IC50 proliferation MPanc96 (Mut) [2]: NE; IC50 proliferation MiaPaCa-2 (Mut) [5]: NE; IC50 proliferation MOH (Mut) [6]: NE
COc1ccc([C@@H](C)N(CC=C(c2ccccc2)c2ccccc2)CCN2CC2)cc1 [NY0438, (R)-N-(2-(aziridin-1-yl)ethyl)-N-(1-(4-methoxyphenyl)ethyl)-3,3-diphenylprop-2-en-1-amine] | 5.1 | 0.754 | – | Cytotoxic at 30 μM [7]: No
CN1CCN(CCN(CC=C(c2ccccc2)c2ccccc2)C2(c3ccccc3)CC2)CC1 [NY0443, N-(3,3-diphenylallyl)-N-(2-(4-methylpiperazin-1-yl)ethyl)-1-phenylcyclopropanamine] | 0.91 | – | Yes | IC50 proliferation NCI H522 (WT) [11]: NE; IC50 proliferation ESS-1 (WT) [12]: NE; IC50 proliferation Ishikawa (WT) [13]: NE; IC50 proliferation NCI H1975 (WT) [14]: NE
C[C@H](c1ccc(F)cc1)N(CC=C(c1ccccc1)c1ccccc1)CCN1CCCC1 [NY0506, (R)-N-(1-(4-fluorophenyl)ethyl)-3,3-diphenyl-N-(2-(pyrrolidin-1-yl)ethyl)prop-2-en-1-amine] | – | 0.808 | Yes | EC50 [1]: 528 nM; minimum effective dose on tumor growth relative to fendiline [15]: more potent than fendiline
COc1ccc(-c2cc(C(=O)N(CCN3CCCC3)[C@H](C)c3ccc(F)cc3)no2)cc1 [PW323, (R)-N-(1-(4-Fluorophenyl)ethyl)-5-(4-methoxyphenyl)-N-(2-(pyrrolidin-1-yl)ethyl)isoxazole-3-carboxamide] | 0.05 | 0.852 | Yes | minimum effective dose on tumor growth relative to fendiline [15]: more potent than fendiline
C(CN(CCN1CCCC1)C1(c2ccccc2)CC1)=C(c1ccccc1)c1ccccc1 [NY0444, N-(3,3-diphenylallyl)-1-phenyl-N-(2-(pyrrolidin-1-yl)ethyl)cyclopropanamine] | 0.73 | 0.732 | Yes | IC50 proliferation ESS-1 (WT) [12]: NE; IC50 proliferation Ishikawa (WT) [13]: NE
C[C@H](c1ccc(F)cc1)N(C/C=C(/c1ccccc1)c1ccc(OC(F)(F)F)cc1)CCN1CCCC1 [PW361, (R,Z)-N-(1-(4-fluorophenyl)ethyl)-3-phenyl-N-(2-(pyrrolidin-1-yl)ethyl)-3-(4-(trifluoromethoxy)phenyl)prop-2-en-1-amine] | 0.725 | 0.606 | Yes at 3 uM | –
COc1ccc([C@@H](C)N(CC=C(c2ccccc2)c2ccccc2)CCN2CCNCC2)cc1 [NY347, (R)-N-(1-(4-methoxyphenyl)ethyl)-3,3-diphenyl-N-(2-(piperazin-1-yl)ethyl)prop-2-en-1-amine] | 1.3 | 0.86 ± 0.02 | Yes | Emax ([1]; listed as 12e): 0.90; Cytotoxic at 30 μM ([3]; listed as 12e): cytotoxicity
COc1ccc([C@@H](C)N(CC=C(c2ccccc2)c2ccccc2)CCCCN2CCN(C)CC2)cc1 [NY0449, (R)-N-(3,3-diphenylallyl)-N-(1-(4-methoxyphenyl)ethyl)-4-(4-methylpiperazin-1-yl)butan-1-amine] | – | 0.810 | Yes | KRAS PM localization inhibition activity (in words) [1]: significantly decreased potency; Emax ([1]; listed as 25): 0.81 ± 0.03
Cc1ccc(C(=CCN(CCN2CCCC2)[C@H](C)c2ccc(F)cc2)c2ccc(C)cc2)cc1 [PW327, (R)-N-(1-(4-Fluorophenyl)ethyl)-N-(2-(pyrrolidin-1-yl)ethyl)-3,3-di-p-tolylprop-2-en-1-amine] | 7.8 | 0.808 | Yes | –
COc1ccc([C@@H](C)N(CC=C(c2ccccc2)c2ccccc2)CCCO)cc1 [NY0479, (R)-3-((3,3-diphenylallyl)(1-(4-methoxyphenyl)ethyl)amino)propan-1-ol] | – | 0.871 | No | EC50 [1]: 1590 nM
OC[C@H](c1ccccc1)N(CC=C(c1ccccc1)c1ccccc1)CC=C(c1ccccc1)c1ccccc1 [AVA72, reference compound] | 0.17 | 0.764 | No | –
